Data as given in ChEMBL document CHEMBL3507680, “University of Dundee, Gates Library screen for HepG2 cell viability”.

Assay: Human HepG2 cell viability assay in 384 well format
Format: toxicity, cell-based
Parameters: dose 125 nL, time 70.5 hour; cytotoxicity at 70.5 h: concentration not given beside the values
Settings: HepG2 cells, read-out: Inhibition

SMILES: CN(CCC(O)c1ccccc1)Cc1nc(-c2ccccc2)no1 (stereo not drawn)
- cytotoxicity at 70.5 h: -7.98%

SMILES: CN(CCC(O)c1ccccc1)Cc1ccccc1C#N (stereo not drawn)
- cytotoxicity at 70.5 h: -5.67%

SMILES: Nc1c(N2CCCCC2)ncnc1N1CCOCC1
- cytotoxicity at 70.5 h: 1.26%

SMILES: CN(C)C(=O)c1cc2ncc(C(=O)NC3CC3)cc2n1C
- cytotoxicity at 70.5 h: -1.06%

SMILES: CC(=O)c1cc2ncc(C(=O)NC3CCCCC3)cc2[nH]1
- cytotoxicity at 70.5 h: 0.178%

SMILES: CNC(=O)c1cnc2c(C)csc2c1
- cytotoxicity at 70.5 h: 22%

SMILES: Cc1csc2cc(C(=O)NC3CC3)cnc12
- cytotoxicity at 70.5 h: -1.57%

SMILES: COCCCNC(=O)c1cn(C(C)(C)C)c2ncccc12
- cytotoxicity at 70.5 h: -5.22%

SMILES: O=C(c1cn(Cc2ccccc2)c2ncccc12)N1CCOCC1
- cytotoxicity at 70.5 h: 2.42%

SMILES: CN1CCN(C(=O)c2cn(Cc3ccccc3)c3ncccc23)CC1
- cytotoxicity at 70.5 h: -3.43%

SMILES: O=C(NCCN1CCCCC1)C(c1ccccc1)N1CCCC1 (stereo not drawn)
- cytotoxicity at 70.5 h: 2.81%

SMILES: CCN(CC)CCNC(=O)CCc1c(C)nn(-c2ccccc2Br)c1C
- cytotoxicity at 70.5 h: 8.21%

SMILES: N#CCCN(CC1CCCO1)C(=O)c1ccc(C#N)cc1 (stereo not drawn)
- cytotoxicity at 70.5 h: -2.77%

SMILES: N#CCCN(CC1CCCO1)C(=O)c1ccc2nonc2c1 (stereo not drawn)
- cytotoxicity at 70.5 h: 0.813%

SMILES: N#CCCN(CC1CCCO1)C(=O)c1ccsc1 (stereo not drawn)
- cytotoxicity at 70.5 h: -4.29%

SMILES: O=C(NCCn1cccc1)C(c1ccccc1)N1CCCC1 (stereo not drawn)
- cytotoxicity at 70.5 h: 1.81%

SMILES: CC(C)(C)C(=O)CN1CCc2ccccc2NCCC1=O
- cytotoxicity at 70.5 h: 3.4%

SMILES: COc1ccc2c(c1)CN(Cc1ccco1)C(=O)CCN2CC(C)(C)O
- cytotoxicity at 70.5 h: 1.21%

SMILES: COc1ccccc1CN1CC(O)CN(C(=O)OCC(C)C)CC1=O (stereo not drawn)
- cytotoxicity at 70.5 h: -10.9%

SMILES: CS(=O)(=O)N1CC(=O)N(CCCc2ccccc2)CC(O)C1 (stereo not drawn)
- cytotoxicity at 70.5 h: -8.69%

SMILES: CCS(=O)(=O)N1CC(=O)N(CCCc2ccccc2)CC(O)C1 (stereo not drawn)
- cytotoxicity at 70.5 h: -3.91%

SMILES: COc1ccc(CC(=O)N2CC(=O)NCC(C)(C)C2)cc1
- cytotoxicity at 70.5 h: 14.8%

SMILES: O=S1(=O)c2cccnc2OC(COc2ccccc2)CN1CC1CC1 (stereo not drawn)
- cytotoxicity at 70.5 h: -2.28%

SMILES: O=S1(=O)c2cccnc2OC(Cc2ccccc2)CN1CC1CC1 (stereo not drawn)
- cytotoxicity at 70.5 h: 1.6%

SMILES: CC(C)(C)OCC1CN(Cc2cccs2)S(=O)(=O)c2cnccc2O1 (stereo not drawn)
- cytotoxicity at 70.5 h: -2.07%

SMILES: COCC1CN(Cc2ccc(OC)cc2)S(=O)(=O)c2cnccc2O1 (stereo not drawn)
- cytotoxicity at 70.5 h: -3.12%

SMILES: COCCN1CCc2ccccc2NCCC1=O
- cytotoxicity at 70.5 h: -6.61%

SMILES: O=C(N1CCOCC1)N1C(CN2CCOCC2)[C@]2(O)CC[C@H]1CC2 (stereo partly drawn)
- cytotoxicity at 70.5 h: 3.03%

SMILES: CNC(=O)CN(C(=O)c1ccccc1)[C@H]1C[C@H]2CCOC[C@H]2C1
- cytotoxicity at 70.5 h: -1.15%

SMILES: CCN1CC2(CCCCN2C(=O)C2CCCCC2)CC1=O (stereo not drawn)
- cytotoxicity at 70.5 h: -7.76%

SMILES: Cc1cccc(CN2CCc3[nH]nc(C(=O)N4CCOCC4)c3C2)n1
- cytotoxicity at 70.5 h: 0.815%

SMILES: N#CC1(C(=O)N2Cc3cc(-c4cc[nH]n4)ccc3C2c2cnco2)CC1 (stereo not drawn)
- cytotoxicity at 70.5 h: 1.75%

SMILES: COCCNC(=O)c1ccnn1-c1ccc2ccccn12
- cytotoxicity at 70.5 h: -4.72%

SMILES: COCCCN1CC2(CCCCN2C(=O)COC)CC1=O (stereo not drawn)
- cytotoxicity at 70.5 h: -8.44%

SMILES: CCc1ccc(CN2CCc3[nH]nc(C(=O)N4CCNC(=O)C4)c3C2)o1
- cytotoxicity at 70.5 h: -11.8%

SMILES: CN(Cc1cccs1)C1CCC[C@@H]2CN(C(=O)c3cccn3C)C[C@H]12 (stereo partly drawn)
- cytotoxicity at 70.5 h: -12.3%

SMILES: CCN1C[C@@H]2CN(C(=O)C3CC=CC3)C[C@@H]2C1=O
- cytotoxicity at 70.5 h: 28%

SMILES: CN(C)c1ccc2c(c1)CN(C(=O)c1ccco1)C2c1cnco1 (stereo not drawn)
- cytotoxicity at 70.5 h: 32.5%

SMILES: CC1N(CC2CC2)C(=O)COC12CCN(C(=O)c1cnccn1)CC2 (stereo not drawn)
- cytotoxicity at 70.5 h: -5.19%

SMILES: O=C1COC2(CCN(C(=O)c3cnccn3)CC2)CN1CC1CC1
- cytotoxicity at 70.5 h: 18.8%

SMILES: Cc1nc(CN2CCC23CCN(C(=O)c2ccncc2)CC3)cs1
- cytotoxicity at 70.5 h: -9.81%

SMILES: CN1Cc2ccccc2CC2(CCN(c3ncccn3)CC2)C1=O
- cytotoxicity at 70.5 h: -14.8%

SMILES: C[C@@H]1C[C@@H]2CCN(Cc3nccs3)C[C@H]2O1
- cytotoxicity at 70.5 h: -9.1%

SMILES: O=C(NC[C@H]1C[C@@H]2CN(C(=O)c3ccno3)C[C@@H]2O1)C1CCC1
- cytotoxicity at 70.5 h: -11.5%

SMILES: Cc1noc(C[C@@H]2COC[C@H]3CN(C(=O)C4=CCCC4)C[C@@H]23)n1
- cytotoxicity at 70.5 h: -13.5%

SMILES: CN1Cc2ccccc2CC2(CCN(c3ncc(F)cn3)CC2)C1=O
- cytotoxicity at 70.5 h: -12.1%

SMILES: CCNC(=O)N1CCC2(CC1)CCn1c(C3CC3)cnc12
- cytotoxicity at 70.5 h: 30.6%

SMILES: CCN(C)C(=O)c1cnc(-c2noc3cc(N4CCCCC4)ccc23)s1
- cytotoxicity at 70.5 h: 30.7%

SMILES: COc1cccc(-c2cnc3n2CCC32CCN(S(C)(=O)=O)CC2)c1
- cytotoxicity at 70.5 h: -2.2%

SMILES: O=C(NC1CC1)c1cnc(-c2noc3cc(N4CCCCC4)ccc23)s1
- cytotoxicity at 70.5 h: -0.737%

SMILES: Cc1nnc([C@H]2C[C@H]3OCC[C@H]3N(S(=O)(=O)C3CC3)C2)o1
- cytotoxicity at 70.5 h: 5.23%

SMILES: Cc1nnc([C@H]2C[C@H]3OCC[C@H]3N(S(=O)(=O)CC(C)C)C2)o1
- cytotoxicity at 70.5 h: -1.29%

SMILES: O=C(C1CC(F)(F)C1)N1CC[C@H]2OCC[C@@]2(COCC2CC2)C1
- cytotoxicity at 70.5 h: -1.76%

SMILES: Cc1ccccc1C(=O)N1C[C@@H]2C[C@@H](C)O[C@@H]2C1
- cytotoxicity at 70.5 h: -8.1%

SMILES: O=C(c1cnc(-c2noc3cc(N4CCCC4)ccc23)s1)N1CCCC1
- cytotoxicity at 70.5 h: -4.44%

SMILES: CNC(=O)N1CCC2(CC1)CN(C(C)C)Cc1cc(F)ccc12
- cytotoxicity at 70.5 h: -2.71%

SMILES: O=C(O)c1c(NC2CCC2)ncc2c1CCN(C1CCOC1)C2 (stereo not drawn)
- cytotoxicity at 70.5 h: -6.13%

SMILES: Cc1ccc(N2CCN(CC3CC3)C3(CCN(C(C)C)CC3)C2=O)cn1
- cytotoxicity at 70.5 h: -5.52%

SMILES: Cc1ccc(CN2CCc3[nH]nc(C(=O)N4CCNC(=O)C4)c3C2)s1
- cytotoxicity at 70.5 h: 3.82%

SMILES: Cn1ccnc1NC[C@@H]1CCC[C@@H]2CN(Cc3nccs3)C[C@@H]21
- cytotoxicity at 70.5 h: -0.236%

SMILES: CC(C)n1c(C(=O)N2CCCC2)nc2c1CCN(C)C2
- cytotoxicity at 70.5 h: -5.23%

SMILES: CN1CCc2c(CNc3ncccn3)n[nH]c2C1
- cytotoxicity at 70.5 h: 49.1%

SMILES: CN(C)C[C@H]1C[C@@H]2CN(C(=O)c3ccno3)C[C@@H]2O1
- cytotoxicity at 70.5 h: -16.7%

SMILES: Cn1nc(Cn2cccc2)c2c1CN(Cc1ccoc1)C2
- cytotoxicity at 70.5 h: 21.4%

SMILES: O=C(c1ccccc1)N1CCO[C@@H]2CN(c3cnccn3)C[C@@H]2C1
- cytotoxicity at 70.5 h: -12.3%

SMILES: CC(C)N1CCC2(CCCN(C(=O)c3cncn3C)C2)CC1
- cytotoxicity at 70.5 h: -12%

SMILES: Cc1nc(CN2C(=O)CC3(CCN(C(N)=O)CC3)c3ccccc32)cs1
- cytotoxicity at 70.5 h: -2.82%

SMILES: c1cncc(C2CC3(CCN(c4cnccn4)CC3)c3ccccc32)c1 (stereo not drawn)
- cytotoxicity at 70.5 h: -1.15%

SMILES: c1cnc(N2CC3(CCN(CC4CCOC4)CC3)c3ccccc32)nc1 (stereo not drawn)
- cytotoxicity at 70.5 h: 0.807%

SMILES: c1cnc(N2CC3(CCN(C4CCOCC4)CC3)c3ccccc32)nc1
- cytotoxicity at 70.5 h: -0.647%

SMILES: O=C([C@H]1COC[C@H]2CN(c3ncc(F)cn3)C[C@H]21)N1CCOCC1
- cytotoxicity at 70.5 h: -7.81%

SMILES: Cc1nnc([C@@H]2CC[C@@H]3[C@@H](CCN3Cc3ccccn3)O2)o1
- cytotoxicity at 70.5 h: 10.5%

SMILES: CN(C)CC(=O)N1CCC2(CCc3ccc(-c4ccncc4)cc32)CC1
- cytotoxicity at 70.5 h: 3.66%

SMILES: Cn1nc(Cn2ccnc2)c2c1CN(Cc1ccoc1)C2
- cytotoxicity at 70.5 h: 24.7%

SMILES: Cn1nc(CN2CCCCC2)c2c1CN(Cc1ccoc1)C2
- cytotoxicity at 70.5 h: -7.22%

SMILES: Cc1cc(C(=O)N2CCCC3(COCCN(c4ncccn4)C3)C2)[nH]n1 (stereo not drawn)
- cytotoxicity at 70.5 h: -6.04%

SMILES: O[C@@H]1CCN(CC2CCOC2)[C@H]1Cc1cccnc1 (stereo partly drawn)
- cytotoxicity at 70.5 h: -12.1%

SMILES: CS(=O)(=O)N[C@@H]1CCN(Cc2nccs2)[C@H]1Cc1ccncc1
- cytotoxicity at 70.5 h: -13.1%
